Reference: patent publication US11680050B2, “Crystalline forms of ozanimod and ozanimod hydrochloride, and processes for preparation thereof” (RECEPTOS LLC, priority 2016, dated 2023)
In brackets after ≈: the same amount, converted by molar mass. Counter-ions that a name gives are not always drawn.

Columns and labels:
Format in all cases: physicochemical
[1] = Hygroscopicity assessment by dynamic vapor sorption (DVS); settings: for Hygroscopicity class according to the definition of hygroscopicity: Chinese Pharmacopoeia 2015, 25° C., 80% RH; for Weight gain under 80% RH: DVS, 25° C.
Method: Dynamic Vapor Sorption (DVS) is measured via an SMS (Surface Measurement Systems Ltd.) intrinsic DVS. Typical Parameters for DVS test are as follows:
Gas and flow rate: N2, 200 mL/min
RH range: 0% RH to 95% RH […]
Dynamic vapor sorption (DVS) was applied to test hygroscopicity of Form CS1 of ozanimod hydrochloride with about 10 mg of samples.
Description and definition of hygroscopicity (Chinese Pharmacopoeia 2015 edition appendix Drug hygroscopic test guidelines, test at 25° C.+/−1° C., 80% RH). • deliquescent: Sufficient water is absorbed to form a liquid; • very hygroscopic: Increase in mass is equal to or greater than 15 percent; • hygroscopic: Increase in mass is less than 15 percent and equal to or greater than 2 percent; • slightly hygroscopic: Increase in mass is less than 2 percent and equal to or greater than 0.2 percent. • non hygroscopic or almost non hygroscopic: Increase in mass is less than 0.2 percent.

[2] = Stability assessment in constant temperature and humidity chambers (HPLC purity, XRPD crystalline form); settings: for 1 week purity % / 2 week purity % / 4 week purity %: HPLC; for 2 week purity %: 2 weeks; for Change of the crystalline form: XRPD; for Stability, overall conclusion of the storage test: after storage under all conditions tested for the form
Method: (§1) Three solid samples of Form CS1 were placed in constant temperature and humidity chambers at 25° C./60% RH, 40° C./75% RH and 60° C./75% RH for 4 weeks. XRPD was used to test the crystalline form at the end of week 4. HPLC was used to measure the chemical purity at the end of week 1, 2, and 4. The XRPD comparison result is shown in FIG. 31 (from top to bottom: XRPD pattern of Form CS1 before and after being stored under 25° C./60% RH, 40° C./75% RH and 60° C./75% RH for 4 weeks), and the results are shown in Table 20.
as §1, with “Four” for “Three”, “CS2” for “CS1”, “weeks and 80° C. for 1 week.” for “weeks.”, “32” for “31”, “weeks and 80° C. for 1 week),” for “weeks),”, “21.” for “20.”
as §1, with “Form CS3” for “Form CS1”, “comparison pattern” for “comparison result”, “FIG. 33” for “FIG. 31”, “Table 22.” for “Table 20.”
as §1, with “Form CS5” for “Form CS1”, “for 2” for “for 4”, “[…].” for “4. HPLC was used to measure the chemical purity at the end of week 1, 2, and 4.”, “comparison pattern” for “comparison result”, “FIG. 34” for “FIG. 31”, “Table 23.” for “Table 20.”
Two samples of Form CS6 were placed in constant temperature and humidity chambers at 25° C./60% RH and 40° C./75% RH for 4 weeks. XRPD was used to test the crystalline form at the end of week 4. HPLC was used to measure the chemical purity at the end of week 1, 2, and 4.The XRPD comparison result is shown in FIG. 35 (from top to bottom: XRPD pattern of Form CS6 before and after being stored under 25° C./60% RH and 40° C./75% RH for 4 weeks), and the results are shown in Table 24.
Four samples of Form CS1 of ozanimod hydrochloride were placed in constant temperature and humidity chambers at 25° C./60% RH, 40° C./75% RH and 60° C./75% RH for 4 weeks and 80° C. for 1 week. XRPD was used to test the crystalline form at the end of week 4. HPLC was used to measure the chemical purity at the end of week 1, 2, and 4. The XRPD comparison pattern is shown in FIG. 36 (from top to bottom: XRPD pattern of ozanimod hydrochloride Form CS1 before and after being stored under 25° C./60% RH, 40° C./75% RH and 60° C./75% RH for 4 weeks and 80° C. for 1 week), and the results are shown in Table 25.

[3] = Solubility assessment of saturated solutions in SGF, FeSSIF and water, measured by HPLC
Method: Form CS1 and Form CS1 of ozanimod hydrochloride were suspended into SGF (Simulated gastric fluids) and FeSSIF (Fed state simulated intestinal fluids, pH=5.0) to obtain saturated solutions. After being equilibrated for 1 h, 4 h and 24 h, concentrations of the saturated solutions were measured by HPLC.
Form CS3 and Form CS5 were suspended into SGF (Simulated gastric fluids) and water, and Form CS2 was suspended into FeSSIF (Fed state simulated intestinal fluids) to obtain saturated solutions. After being equilibrated for 1 h, 4 h and 24 h, concentrations of the saturated solutions were measured by HPLC.

[4] = Mechanical stability, manual grinding for 5 minutes in mortar, XRPD; settings: ground manually for 5 minutes, XRPD before and after
Method: Solid samples of Form CS3, Form CS5, Form CS6 of ozanimod and Form CS1 of ozanimod hydrochloride were ground manually for 5 minutes in mortar.

[5] = Particle size distribution test (laser particle size analyzer, wet process); settings: for MV, average particle size calculated by volume: dispersion medium Isopar G; for D10 / D50 (median diameter) / D90: volume distribution, Isopar G
Method: The particle size distribution test in the present disclosure is acquired by the S3500 laser particle size analyzer of Microtrac. Microtrac S3500 is equipped with the SDC (Sample Delivery Controller). The test is carried out by wet process, and the dispersion medium is Isopar G The parameters are as follow:
Certain amount of samples of Form CS1, Form CS2, Form CS3, Form CS5, Form CS6 of ozanimod and Form CS1 of ozanimod hydrochloride were taken for particle size distribution test.

SMILES | Hygroscopicity class according to the definition of hygroscopicity [1] | Change of the crystalline form ([2]; 25° C./60% RH, 4 weeks) | Change of the crystalline form ([2]; 40° C./75% RH, 4 weeks) | Change of the crystalline form ([2]; 60° C./75% RH, 4 weeks) | Change of the crystalline form ([2]; 80° C., 1 week) | Stability, overall conclusion of the storage test [2] | Form change under mechanical stress [4] | Weight gain under 80% RH [1] [%] | 1 week purity % ([2]; 25° C./60% RH, 1 week) [%] | 2 week purity % ([2]; 25° C./60% RH) [%] | 4 week purity % ([2]; 25° C./60% RH, 4 weeks) [%] | 1 week purity % ([2]; 40° C./75% RH, 1 week) [%] | 2 week purity % ([2]; 40° C./75% RH) [%] | 4 week purity % ([2]; 40° C./75% RH, 4 weeks) [%] | 1 week purity % ([2]; 60° C./75% RH, 1 week) [%] | 2 week purity % ([2]; 60° C./75% RH) [%] | MV, average particle size calculated by volume [5] [μm] | D10 [5] [μm] | D50 (median diameter) [5] [μm] | D90 [5] [μm] | also measured
CC(C)Oc1ccc(-c2nc(-c3cccc4c3CC[C@@H]4NCCO)no2)cc1C#N [Form CS1 of ozanimod hydrochloride, ozanimod hydrochloride] | slightly hygroscopic (Increase in mass is less than 2 percent and equal to or greater than 0.2 percent) | No change | No change | No change | No change | good stability | No form change | – | – | – | – | – | – | – | – | – | – | – | – | – | Weight gain under 80% RH ([1]; hydrochloride): 0.55%; Weight gain under 80% RH ([1]; listed as ozanimod hydrochloride Form CS1, hydrochloride): 0.55%; 1 week purity % ([2]; 25° C./60% RH, 1 week, hydrochloride): 99.18%; 2 week purity % ([2]; 25° C./60% RH, hydrochloride): 99.13%; 4 week purity % ([2]; 25° C./60% RH, 4 weeks, hydrochloride): 99.22%; 1 week purity % ([2]; 40° C./75% RH, 1 week, hydrochloride): 99.15%; 2 week purity % ([2]; 40° C./75% RH, hydrochloride): 99.12%; 4 week purity % ([2]; 40° C./75% RH, 4 weeks, hydrochloride): 99.24%; 1 week purity % ([2]; 60° C./75% RH, 1 week, hydrochloride): 99.25%; 2 week purity % ([2]; 60° C./75% RH, hydrochloride): 99.25%; 4 week purity % ([2]; 60° C./75% RH, 4 weeks, hydrochloride): 99.36%; 1 week purity % ([2]; 80° C., 1 week, hydrochloride): 99.34%; Solubility ([3]; FeSSIF (pH=5.0), 4 h, hydrochloride): 1500 µg/mL; MV, average particle size calculated by volume ([5]; hydrochloride): 200.7 μm; D10 ([5]; hydrochloride): 20.84 μm; D50 (median diameter) ([5]; hydrochloride): 180.8 μm; D90 ([5]; hydrochloride): 397.7 μm
CC(C)Oc1ccc(-c2nc(-c3cccc4c3CC[C@@H]4NCCO)no2)cc1C#N [Form CS1, ozanimod] | slightly hygroscopic (Increase in mass is less than 2 percent and equal to or greater than 0.2 percent) | No change | No change | No change | – | good stability | – | 0.36 | 99.12 | 99.18 | 98.97 | 99.16 | 99.17 | 98.92 | 99.26 | 99.13 | 22.40 | 3.15 | 11.20 | 48.90 | 4 week purity % ([2]; 60° C./75% RH, 4 weeks): 98.71%; Solubility ([3]; FeSSIF (pH=5.0), 1 h): 4200 µg/mL (≈ 10.4 mM); Solubility ([3]; FeSSIF (pH=5.0), 4 h): 7300 µg/mL (≈ 18 mM); Solubility ([3]; SGF, 1 h): 6400 µg/mL (≈ 15.8 mM); Solubility ([3]; SGF, 4 h): 6300 µg/mL (≈ 15.6 mM); Solubility ([3]; SGF, 24 h): 5900 µg/mL (≈ 14.6 mM); solubility at 24 h ([3]; fed state simulated intestinal fluid (FeSSIF), pH 5, fessif, thermodynamic from solid, FeSSIF (pH=5.0), 24 h): 7700 µg/mL (≈ 19 mM)
CC(C)Oc1ccc(-c2nc(-c3cccc4c3CC[C@@H]4NCCO)no2)cc1C#N [Form CS2, ozanimod] | slightly hygroscopic (Increase in mass is less than 2 percent and equal to or greater than 0.2 percent) | No change | No change | No change | No change | good stability | – | 0.25 | 99.85 | 99.63 | 99.62 | 99.84 | 99.78 | 99.55 | 99.91 | 99.60 | 23.24 | 5.78 | 14.20 | 42.35 | 4 week purity % ([2]; 60° C./75% RH, 4 weeks): 99.63%; 1 week purity % ([2]; 80° C., 1 week): 99.71%; Solubility ([3]; FeSSIF (pH=5.0), 1 h): 2000 µg/mL (≈ 4.94 mM)
CC(C)Oc1ccc(-c2nc(-c3cccc4c3CC[C@@H]4NCCO)no2)cc1C#N [Form CS6, ozanimod] | – | No change | No change | – | – | good stability | No form change | 1.68 | 98.44 | 98.21 | 98.27 | 98.47 | 98.33 | 97.97 | – | – | 68.91 | 12.87 | 46.47 | 161.7 | –
